In article PMC4791210 (International immunopharmacology, 2015):

Legend:
human neutrophils [1] = conditions: cited from earlier work; for Inhibition of fMLF-induced Ca2+ mobilization in human neutrophils / Inhibition of fMLF-induced Ca2+ flux in neutrophils: result in words
[2] = test system: fMLF-stimulated neutrophils; conditions: list of responses inhibited; ref per compound in References column of Table 1; cited from earlier work
FPR1 [3] = target: T1, FPR1 (Homo sapiens, UniProt P21462); conditions: result in words; no data shown; cited from earlier work
T1 sequence (P21462 1-350): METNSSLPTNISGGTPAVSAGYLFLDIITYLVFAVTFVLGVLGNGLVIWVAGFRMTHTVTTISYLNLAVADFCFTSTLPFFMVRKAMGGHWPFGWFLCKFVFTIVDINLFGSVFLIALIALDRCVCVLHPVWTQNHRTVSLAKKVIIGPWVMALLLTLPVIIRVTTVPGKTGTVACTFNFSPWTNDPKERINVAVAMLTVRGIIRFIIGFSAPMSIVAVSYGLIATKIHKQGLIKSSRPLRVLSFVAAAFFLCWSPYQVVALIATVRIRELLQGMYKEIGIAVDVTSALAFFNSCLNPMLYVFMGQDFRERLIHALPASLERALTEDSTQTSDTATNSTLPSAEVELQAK

human neutrophils [4] = conditions: result in words; no data shown; cited from earlier work
FPR1 [5] = target: T1, FPR1; conditions: cited from earlier work
FPR1 [6] = target: T1, FPR1; conditions: result in words; cited from earlier work
FPR1 [7] = conditions: high concentrations; cited from earlier work
FPR1 [8] = target: T1, FPR1; test: Direct activation of Ca2+ flux in FPR1 transfected HL-60 cells; format: cell-based
human neutrophils [9] = test: Direct activation of Ca2+ flux in human neutrophils; format: cell-based; conditions: Neutrophil, read-out: Human Neutrophils Activation (EC50, μM)
FPR1 [10] = target: T1, FPR1; conditions: human neutrophils; cited from earlier work
neutrophils = conditions: read-out: IC50, inhibition of fMLF-stimulated neutrophil degranulation; cited from earlier work
rat neutrophils = conditions: fMLF-stimulated rat neutrophils, cited from earlier work
FPR1 [11] = conditions: cited from earlier work
monocytes = conditions: read-out: IC50, inhibition of fMLF-induced monocyte locomotion; cited from earlier work
FPR2 = conditions: cited from earlier work
FPR1 [12] = target: T1, FPR1; conditions: read-out: IC50, displacement of [3H]-fMLF; FPR1-transfected RBL cells; cited from earlier work
[13] = animal experiments; cited from earlier work
[14] = animal experiments; cited from earlier work; remark: listed apart in the source

Compound: O=c1c(-c2ccccc2)coc2cc(O)ccc12 [7-hydroxyisoflavone]
- Inhibition of fMLF-induced Ca2+ mobilization in human neutrophils (human neutrophils [1]): none

Compound: COc1ccc(CCN(C)C(=O)/C=C/c2ccc(O)cc2)cc1 [Ailanthamide]
- fMLF-induced Responses Inhibited in Neutrophils [2]: O2^−· production, HNE release

Compound: COc1cc2oc(=O)ccc2c2c1C=CC(C)(C)O2 [Alloxanthoxyletin]
- fMLF-induced Responses Inhibited in Neutrophils [2]: O2^−· production, HNE release

Compound: CC(=O)OCC(Cc1ccccc1)NC(=O)C(Cc1ccccc1)NC(=O)c1ccccc1 (stereo not drawn) [Aurantiamide acetate, aurantiamide acetate]
- fMLF-induced Responses Inhibited in Neutrophils [2]: O2^−· production

Compound: COc1c2ccoc2cc2oc(=O)ccc12 [Bergapten]
- fMLF-induced Responses Inhibited in Neutrophils [2]: O2^−· production, HNE release

Compound: COc1ccc(-c2coc3cc(O)cc(O)c3c2=O)cc1 [Biochanin A]
- Direct agonist activity in FPR1-HL60 cells (FPR1 [3]): direct agonist activity
- Inhibition of fMLF-induced Ca2+ mobilization in human neutrophils (human neutrophils [1]): inhibited
- Direct agonist activity in primary neutrophils (human neutrophils [4]): direct agonist activity
- Inhibition of binding of labeled ligand (WKYMVm-FITC) to FPR1-HL60 cells (FPR1 [5]): did not inhibit binding
- Inhibition of fMLF-induced Ca2+ flux in FPR1-HL60 cells (FPR1 [6]): inhibited

Compound: C/C(=C/Cc1c(O)cc2oc(C)cc(=O)c2c1O)CO [Cnidimol A]
- fMLF-induced Responses Inhibited in Neutrophils [2]: O2^−· production, HNE release

Compound: COc1c(O)ccc2c1cnc1c3cc4c(cc3ccc21)OCO4 [Decarine]
- fMLF-induced Responses Inhibited in Neutrophils [2]: O2^−· production, HNE release

Compound: C=C(C)C(O)Cc1c(O)ccc2ccc(=O)oc12 (stereo not drawn) [Demethylauraptenol]
- fMLF-induced Responses Inhibited in Neutrophils [2]: O2^−· production, HNE release

Compound: C[C@H](CCC(=O)O)[C@H]1CC[C@H]2[C@@H]3CC[C@@H]4C[C@H](O)CC[C@]4(C)[C@H]3C[C@H](O)[C@]12C [Deoxycholic acid (DCA), Deoxycholic acid]
- Concentrations that antagonize FPR1 and inhibit 3H-fMLF binding (FPR1 [7]): ≥ 100 µM
- EC50 (FPR1 [8]): 40.9 ± 5.5 µM
- EC50 (human neutrophils [9]): 49 ± 5.4 µM

Compound: C=C(C)[C@@H]1CC[C@]2(C(=O)O)CC[C@]3(C)[C@H](CC[C@@H]4[C@@]5(C)CC[C@@H](O)C(C)(C)[C@@H]5CC[C@]43C)[C@@H]12 [Epibetulinic acid]
- fMLF-induced Responses Inhibited in Neutrophils [2]: O2^−· production

Compound: Cc1cc2ccc3c(c2cc1O)CCC(=O)C3(C)C [Flueggrene A]
- fMLF-induced Responses Inhibited in Neutrophils [2]: O2^−· production, HNE release

Compound: C=C(C)[C@@H](CC=C(C)C)C[C@@]12C[C@@H](CC=C(C)C)C(C)(C)[C@]3(C=CC(C)(C)OC3=C(C(=O)c3ccccc3)C1=O)C2=O [Garcimultiflorone B]
- fMLF-induced Responses Inhibited in Neutrophils [2]: O2^−· production, HNE release

Compound: COC(=O)C(C)CCC[C@]1(C)CC[C@]2(O1)C(=O)C(C)=C(C)[C@@]2(O)C(C)=O (stereo partly drawn) [Hirsutocospiro A]
- fMLF-induced Responses Inhibited in Neutrophils [2]: O2^−· production, HNE release

Compound: CC(C)=CCOc1c2occc2cc2ccc(=O)oc12 [Imperatorin]
- EC50 (FPR1 [8]): 50.9 ± 4.7 µM
- fMLF-induced Responses Inhibited in Neutrophils [2]: O2^−· production
- EC50 (human neutrophils [9]): 31.1 ± 3.6 µM

Compound: C=C1[C@H]2[C@@H]([C@@H](C(C)C)C[C@@H]1O)[C@H]1O[C@@H]2C[C@](C)(O)[C@@H](OC(=O)Cc2ccccc2)CC[C@@]1(C)OC(=O)CCC [Klymollin M]
- fMLF-induced Responses Inhibited in Neutrophils [2]: O2^−· production, HNE release

Compound: COc1cc(O)c2c(=O)c(OC)c(-c3ccc(O)c(OC)c3)oc2c1 [MSF-2, 5-hydroxy-2-(4-hydroxy-3-methoxyphenyl)-3,7-dimethoxy-4H-chromen-4-one]
- Interference with fMLF binding (FPR1 [10]): did not interfere

Compound: CC1(C)CC[C@]2(C(=O)O)CC[C@]3(C)C(=CC[C@@H]4[C@@]5(C)CC[C@H](O)C(C)(C)[C@@H]5CC[C@]43C)[C@@H]2C1 [Oleanolic acid]
- fMLF-induced Responses Inhibited in Neutrophils [2]: O2^−· production, HNE release

Compound: CC(C)=CCc1c(O)ccc2ccc(=O)oc12 [Osthenol]
- fMLF-induced Responses Inhibited in Neutrophils [2]: O2^−· production, HNE release

Compound: COC1=CC(=O)c2cc(-c3ccc(OC)c(O)c3)c3cc(O)c(OC)cc3c2C1=O [Pterolinus K]
- fMLF-induced Responses Inhibited in Neutrophils [2]: O2^−· production, HNE release

Compound: C=CCc1ccc(O)c(-c2cc(O)ccc2O)c1 [Randaiol]
- fMLF-induced Responses Inhibited in Neutrophils [2]: O2^−· production and HNE release

Compound: C=C(CO)[C@@H]1CC[C@]2(C)CC[C@]3(C)[C@H](CC[C@@H]4[C@@](C)(CC(=O)O)[C@H](C(C)(C)C(=O)O)CC[C@]43C)[C@@H]12 [Triterpene 17, 30-hydroxy-2,3-seco-lup-20(29)-ene-2,3-dioic acid]
- fMLF-induced Responses Inhibited in Neutrophils [2]: O2^−· production, HNE release

Compound: COc1cc(CCCc2c(OC)cc(O)c(OC)c2OC)ccc1O [Viscolin]
- Inhibition of fMLF-induced Ca2+ flux in neutrophils (human neutrophils [1]): did not inhibit

Compound: CC1(C)C=Cc2cc3ccc(=O)oc3cc2O1 [Xanthyletin]
- fMLF-induced Responses Inhibited in Neutrophils [2]: O2^−· Production, HNE release

Compound: COc1ccc(-c2coc3cc(O)c(OC)cc3c2=O)cc1 [afrormosin]
- Inhibition of fMLF-induced Ca2+ mobilization in human neutrophils (human neutrophils [1]): none
- IC50 (neutrophils): ~67 µM

Compound: COc1c(C(=O)CCc2ccccc2)c(O)c(O)c2c1/C(=C/c1ccccc1)C(=O)O2 [bractelactone]
- Inhibition of fMLF-induced Ca2+ flux in neutrophils (human neutrophils [1]): did not inhibit

Compound: O=c1c(-c2ccc(O)cc2)coc2cc(O)ccc12 [daidzein]
- Inhibition of fMLF-induced Ca2+ mobilization in human neutrophils (human neutrophils [1]): none

Compound: COc1ccc(-c2coc3cc(O)ccc3c2=O)cc1 [formononetin]
- Inhibition of fMLF-induced Ca2+ mobilization in human neutrophils (human neutrophils [1]): none

Compound: O=c1c(-c2ccc(O)cc2)coc2cc(O)cc(O)c12 [genistein]
- Inhibition of fMLF-induced Ca2+ mobilization in human neutrophils (human neutrophils [1]): none and did not antagonize
- Inhibition of fMLF-induced Ca2+ flux in FPR1-HL60 cells (FPR1 [6]): did not antagonize

Compound: COc1c(O)c(OC)c2c(c1OC)O[C@H](c1ccccc1)CC2=O [isopedicin]
- Inhibition of fMLF-induced Ca2+ flux in neutrophils (human neutrophils [1]): did not inhibit

Compound: CC[C@H](CC[C@@H](C)[C@H]1CC[C@H]2[C@@H]3CC(=O)C4=CC(=O)CC[C@]4(C)[C@H]3CC[C@]12C)C(C)C [stigmast-4-ene-3,6-dione]
- Concentrations that inhibited O2−· production (rat neutrophils): 30 to 100 µM

Compound: CC[C@H](CC[C@@H](C)[C@H]1CC[C@H]2[C@@H]3CC(=O)C4CC(=O)CC[C@]4(C)[C@H]3CC[C@]12C)C(C)C (stereo partly drawn) [stigmastane-3,6-dione]
- Inhibition of O2−· production (rat neutrophils; result in words): non-active

Compound: C[C@H](CCC(=O)NCCS(=O)(=O)O)[C@H]1CC[C@H]2[C@@H]3[C@@H](O)C[C@@H]4C[C@H](O)CC[C@]4(C)[C@H]3CC[C@]12C [tauroursodeoxycholic acid]
- IC50 (human neutrophils [1]; read-out: IC50, inhibition of fMLF-induced Ca2+ mobilization): ~500 µM

Compound: (+)-Episesamin
- fMLF-induced Responses Inhibited in Neutrophils [2]: O2^−· production, HNE release

Compound: Aristolatams IIIa
- fMLF-induced Responses Inhibited in Neutrophils [2]: O2^−· production, HNE release

Compound: Berryammone A
- fMLF-induced Responses Inhibited in Neutrophils [2]: O2^−· production, HNE release

Compound: Berryammone B
- fMLF-induced Responses Inhibited in Neutrophils [2]: O2^−· production, HNE release

Compound: Lawsochylin A
- fMLF-induced Responses Inhibited in Neutrophils [2]: O2^−· production, HNE release

Compound: Lawsonaphthoate A
- fMLF-induced Responses Inhibited in Neutrophils [2]: O2^−· production, HNE release

Compound: cyclized SRSRY: cyclized form of urokinase receptor-derived peptide Ser-Arg-Ser-Arg-Tyr (not fully specified; cyclized; printed: Ser-Arg-Ser-Arg-Tyr)
- Binding of FITC-labeled fMLF to FPR1 transfected cells (FPR1 [11]): inhibited binding
- IC50 (monocytes): 0.01 nM

Compound: cyclosporine A [CsA]
- Inhibitory effects on FPR2-mediated cellular functions (FPR2): did not exhibit any obvious inhibitory effects
- IC50 (FPR1 [12]): 1.8 µM

Compound: cyclosporine H [CsH]
- Effect on fMLF-induced analgesia [13]: blocked
- Inhibitory effects on FPR2-mediated cellular functions (FPR2): did not exhibit any obvious inhibitory effects
- Effect on acute inflammatory response evoked by cigarette smoke [14]: attenuated

Compound: hecogenin
- Concentrations that inhibited O2−· production (rat neutrophils): 30 to 100 µM
